Data on 7 compounds can be found in PMC6199744, “Development of Chemical Proteomics for the Folateome and Analysis of the Kinetoplastid Folateome” (ACS Infectious Diseases, 2018).

Holding throughout (type): binding
Test [1] has as its target T1, HeLa cell extract proteins (Homo sapiens, UniProt Q03519).
T1 construct: endogenous in cells; host or cells: HeLa cell extract
T1 sequence (Q03519 1-686): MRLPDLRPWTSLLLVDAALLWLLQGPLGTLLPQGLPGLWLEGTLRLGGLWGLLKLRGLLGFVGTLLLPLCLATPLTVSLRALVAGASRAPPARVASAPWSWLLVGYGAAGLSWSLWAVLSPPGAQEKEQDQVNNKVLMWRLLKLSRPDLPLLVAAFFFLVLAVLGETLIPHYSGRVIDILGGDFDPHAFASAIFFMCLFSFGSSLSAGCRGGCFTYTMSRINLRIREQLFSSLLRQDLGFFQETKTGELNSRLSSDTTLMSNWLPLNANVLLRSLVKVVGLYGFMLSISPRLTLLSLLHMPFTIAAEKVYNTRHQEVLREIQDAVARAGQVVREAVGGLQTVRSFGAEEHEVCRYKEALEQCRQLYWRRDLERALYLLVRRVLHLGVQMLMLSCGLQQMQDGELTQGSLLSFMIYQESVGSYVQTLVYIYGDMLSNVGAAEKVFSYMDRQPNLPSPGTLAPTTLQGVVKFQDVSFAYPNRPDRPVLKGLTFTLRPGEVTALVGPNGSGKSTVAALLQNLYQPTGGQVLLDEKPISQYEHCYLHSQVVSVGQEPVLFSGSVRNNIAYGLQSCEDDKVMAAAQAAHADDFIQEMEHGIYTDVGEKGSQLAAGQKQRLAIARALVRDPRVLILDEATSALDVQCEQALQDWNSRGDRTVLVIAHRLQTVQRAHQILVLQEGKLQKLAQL

Test [2] addresses T2, HeLa cell extract proteins (Homo sapiens, UniProt Q9NVI1).
T2 construct: endogenous in cells; host or cells: HeLa cell extract
T2 sequence (Q9NVI1 1-1328): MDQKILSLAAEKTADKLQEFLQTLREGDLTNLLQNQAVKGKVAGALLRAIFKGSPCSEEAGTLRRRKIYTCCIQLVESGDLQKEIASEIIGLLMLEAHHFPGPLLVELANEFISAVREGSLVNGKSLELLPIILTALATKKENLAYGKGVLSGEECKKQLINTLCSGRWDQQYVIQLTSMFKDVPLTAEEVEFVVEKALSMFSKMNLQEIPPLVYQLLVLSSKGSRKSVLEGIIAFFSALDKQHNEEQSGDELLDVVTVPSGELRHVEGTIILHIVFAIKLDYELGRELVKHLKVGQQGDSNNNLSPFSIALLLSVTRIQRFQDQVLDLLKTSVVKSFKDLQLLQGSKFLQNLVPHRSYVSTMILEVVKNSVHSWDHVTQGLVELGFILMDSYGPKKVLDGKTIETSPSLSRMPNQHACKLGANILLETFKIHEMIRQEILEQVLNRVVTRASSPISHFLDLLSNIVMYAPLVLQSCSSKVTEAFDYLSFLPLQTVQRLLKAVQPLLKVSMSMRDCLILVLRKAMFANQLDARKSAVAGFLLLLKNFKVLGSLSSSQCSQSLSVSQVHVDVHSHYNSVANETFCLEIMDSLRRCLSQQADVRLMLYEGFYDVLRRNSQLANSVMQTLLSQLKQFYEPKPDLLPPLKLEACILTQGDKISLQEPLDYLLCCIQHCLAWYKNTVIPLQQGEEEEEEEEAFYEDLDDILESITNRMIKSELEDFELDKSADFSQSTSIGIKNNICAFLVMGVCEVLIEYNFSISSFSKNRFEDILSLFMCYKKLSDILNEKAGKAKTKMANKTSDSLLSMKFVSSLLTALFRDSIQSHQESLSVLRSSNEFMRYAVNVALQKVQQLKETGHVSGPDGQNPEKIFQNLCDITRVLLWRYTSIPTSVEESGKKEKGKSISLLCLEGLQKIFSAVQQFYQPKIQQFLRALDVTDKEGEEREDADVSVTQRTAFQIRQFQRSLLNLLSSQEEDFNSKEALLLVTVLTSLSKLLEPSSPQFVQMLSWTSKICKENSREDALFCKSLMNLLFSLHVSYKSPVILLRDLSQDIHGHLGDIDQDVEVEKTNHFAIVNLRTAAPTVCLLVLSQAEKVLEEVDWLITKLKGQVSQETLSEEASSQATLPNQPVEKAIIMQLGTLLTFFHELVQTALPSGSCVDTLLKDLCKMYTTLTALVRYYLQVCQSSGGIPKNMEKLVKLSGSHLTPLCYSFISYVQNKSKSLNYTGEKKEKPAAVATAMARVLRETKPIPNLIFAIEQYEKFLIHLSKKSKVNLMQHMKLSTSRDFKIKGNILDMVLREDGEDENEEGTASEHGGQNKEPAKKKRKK

Test [3] deals with T3, HeLa cell extract proteins (Homo sapiens, UniProt P30041).
T3 construct: endogenous in cells; host or cells: HeLa cell extract
T3 sequence (P30041 1-224): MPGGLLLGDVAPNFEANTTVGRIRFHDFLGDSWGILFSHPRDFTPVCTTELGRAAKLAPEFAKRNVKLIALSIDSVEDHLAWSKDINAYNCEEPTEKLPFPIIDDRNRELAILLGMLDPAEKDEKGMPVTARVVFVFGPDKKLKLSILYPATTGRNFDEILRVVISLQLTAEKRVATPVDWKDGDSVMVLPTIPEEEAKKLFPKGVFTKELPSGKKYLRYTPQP

[4] abbreviates: HeLa, protein PRDX6 (PEROXIREDOXIN-6.).

Like-named read-outs stand apart in the source and are kept apart here.

In the case of `Nc1nc2cccc(-c3ccccc3)c2n1Cc1ccc(Cl)c(Cl)c1` [compound 3], the “fold changes relative to vehicle control” value was found to be 1.06 in test [1] (captured protein TAP2, HeLa); 1.19 in test [2] (protein FANCI, HeLa); 0.92 fold in test [3] (setting [4]).

Turning to `NCCOCCOCC(=O)Nc1nc2ncc(CNc3ccc(C(=O)NC(CCC(=O)O)C(=O)O)cc3)nc2c(=O)[nH]1` (stereo not drawn) [compound 6], the “fold changes relative to vehicle control” value turned out to be 1.18 in test [1] (HeLa, captured protein TAP2); 1.11 in test [2] (HeLa, protein FANCI); 1.33 in test [3] (HeLa, protein PRDX6).

On to `Nc1nc2[nH]cc(CCc3ccc(C(=O)N[C@@H](CCC(=O)O)C(=O)O)cc3)c2c(=O)[nH]1` [PTX, pemetrexed], for which the “fold changes relative to vehicle control” value in test [1] was determined as 0.89; in test [2], 1.04; in test [3], 1.21.

`Nc1nc2c(c(=O)[nH]1)N(C=O)C(CNc1ccc(C(=O)N[C@@H](CCC(=O)O)C(=O)O)cc1)CN2` (stereo partly drawn) [LEU, leucovorin]: the “fold changes relative to vehicle control” value is recorded as 1.11 in test [1] (HeLa, captured protein TAP2); 0.87 in test [2] (HeLa, protein FANCI); 1.05 in test [3] (HeLa, protein PRDX6).

Take `CCCCCCOc1ccc(Cc2cnc(N)nc2N)cc1` [compound 1]: the “fold changes relative to vehicle control” value in test [1] (captured protein TAP2, HeLa) was determined as 1.01; in test [2] (protein FANCI, HeLa), 1; in test [3] (setting [4]), 1.45 fold.

As to `NCCCNc1ccc(C(=O)NC(CCC(=O)O)C(=O)O)cc1` (stereo not drawn) [compound 7], the “fold changes relative to vehicle control” value is listed as 1.09 in test [1] (HeLa, captured protein TAP2); 1.09 in test [2] (HeLa, protein FANCI); 1.01 in test [3] (HeLa, protein PRDX6).

As for `CCCCCCOc1cccc(Cc2cnc(N)nc2N)c1` [compound 2], the “fold changes relative to vehicle control” value in test [1] (captured protein TAP2, HeLa) worked out at 0.98; in test [2] (protein FANCI, HeLa) it was 1.02; in test [3] (setting [4]) it was 2.27 fold.
